We go through 4 molecules from patent publication US11453667B2, “Pyridone-pyrimidine derivative acting as KRASG12C mutein inhibitor” (MEDSHINE DISCOVERY INC., priority 2018, dated 2022).

By IC50 is commonly meant the concentration needed to halve the response being measured. The low end stands for higher potency, the high end for lower potency. What is called TGI is the reduction of tumour growth relative to the control group. Read a low TGI as a weaker effect on the tumour.

In data set [1] the test system is NCI-H358 human non-small cell lung cancer cells with KRAS G12C mutation. The experiment in a line: Cell experiment: anti-proliferative activity, CellTiter-Glo, NCI-H358. Format: cell-based. To be noted: Homo sapiens, NCI-H358, 120 h, 5 days culture. The procedure:
(§1) This experiment is intended to verify that the compounds of the present invention have an inhibitory effect on the proliferation of NCI-H358 human non-small cell lung cancer cells with KRAS G12C mutation, MIA PaCa2 human pancreatic cancer cells with KRAS G12C mutation and wild-type A375 human malignant melanoma cells.
(§2) 40 μl of phosphate buffer was added to the peripheral wells of three 384-well microplates respectively, and 40 μl of cell suspension to be tested was added to the other wells of each plate respectively (plate 1: NCI-H358 cell suspension containing 500 NCI-H358 cells; plate 2: MIAPaCa2 cell suspension containing 300 MIAPaCa2 cells; plate 3: A375 cell suspension containing 300 A375 cells). The three cell plates were then placed in a carbon dioxide incubator and incubated overnight. Echo was used to perform a 3-fold gradient dilution of the compounds to be tested, and each compound was diluted with 10 concentration gradients (diluted from 50 μM to 0.003 μM), 100 nl of which was respectively added to the corresponding wells of the cell plates; after dosing, 40 μL of phosphate buffer was added to each well of rows A and P and columns 1 and 24, and then the cell plates were put back to the carbon dioxide incubator for culturing for 5 days. 20 μl of Promega CellTiter-Glo reagent per well was added to the cell plates, which was shaken at room temperature for 10 minutes in the dark to stabilize the luminescence signal. A PerkinElmer Envision multi-label analyzer was used for reading.
(§3) Data analysis: IC50 results were analyzed by GraphPad Prism 5.0 software […].
In general terms: ATP-based viability assays read luminescence as a measure of living cells.

Data set [2] has as its system wild-type A375 human malignant melanoma cells. In words: Cell experiment: anti-proliferative activity, CellTiter-Glo, A375. To be noted: Homo sapiens, A-375, 120 h, 5 days culture. In kind it is cell-based. The procedure:
as §1, §2, §3

Data set [3] has as its system MIA PaCa2 human pancreatic cancer cells with KRAS G12C mutation. The experiment in a line: Cell experiment: anti-proliferative activity, CellTiter-Glo, MIA PaCa2. Particulars: 5 days culture. Format: cell-based. The procedure: as §1, §2, §3
A short description of data set [4]: Liver microsome stability test, human. Particulars: human liver microsomes, 0.5 mg protein/mL; read-out: Human T1/2. In kind it is in vitro ADME. The procedure:
(§4) To test the metabolic stability of the test article in mice, rats and human liver microsomes.
(§5) 1. 10 μL of the test or control article working solution was added to all plates (T0, T5, T10, T20, T30, T60, NCF60).
(§6) 2. Liver microsome solution was dispensed into a 96-well plate at 680 μL/well, and addition was performed on each plate at 80 μL/well, and the above-mentioned incubation plate was placed at 37° C. for pre-incubation for about 10 minutes.
(§7) 4. After the pre-incubation, the NADPH regeneration system working solution was dispensed into the 96-well plate at 90 μL/well, and addition was performed on each plate at 10 μL/well to start the reaction.
(§8) 5. Incubation was performed for an appropriate time (e.g., 5, 10, 20, 30 and 60 minutes).
(§9) 6. 300 μL of the stopping solution (refrigerated at 4° C., containing 100 ng/mL of tolbutamide and 100 ng/mL of labetalol) was respectively added to each sample well.
(§10) T1/2 and Clint(mic) were calculated by the following formula.
(§11) Ct is the concentration at time t, with t being the incubation time; C0 is the concentration at 0; Ke is the elimination rate constant; Clint(mic) is the intrinsic clearance rate of liver microsomes; and Clint(liver) is the hepatic intrinsic clearance rate. CLint(mic)=0.693/half-life/mg microsomal protein per mL (microsome concentration during incubation) CLint(liver)=CLint(mic)×mg microsomal protein/g liver weight×ratio of liver weight to body weight
In general terms: Liver microsomes are vesicles of endoplasmic reticulum, rich in cytochrome P450 enzymes.

Data set [5] is described as follows: Liver microsome stability test, rat. Format: in vitro ADME. To be noted: rat liver microsomes, 0.5 mg protein/mL; read-out: rat T1/2. On the procedure:
as §4, §5, §6, §7, §8, §9, §10, §11

A short description of data set [6]: Liver microsome stability test, mouse. In kind it is in vitro ADME. To be noted: mouse liver microsomes, 0.5 mg protein/mL; read-out: mouse T1/2. On the procedure:
as §4, §5, §6, §7, §8, §9, §10, §11

Data set [7] deals with human pancreatic cancer MIA-PaCa2 cell. In words: In vivo drug efficacy test (1): subcutaneous xenograft tumor model. Further details: species or system BALB/c nude mice. Particulars: for TGI: day 20. On the procedure:
To evaluate the in vivo efficacy of the test compounds in a subcutaneous xenograft tumor model of human pancreatic cancer MIA-PaCa2 cell.
BALB/c nude mice, female, 6-8 weeks old, weighing approximately 18-22 grams. Each mouse was subcutaneously inoculated with 0.2 mL (1×10^7) of MIA-PaCa2 cells (plus matrigel, with the volume ratio being 1:1) on the right back. The administration was performed when the average tumor volume reached about 169 cubic millimeters. The tumor volume was measured twice a week, with the volume measured in cubic millimeters, and calculated by the following formula: V=0.5 a×b^2, where a and b were the long and short diameters of the tumor, respectively. The tumor suppressive effect of the compounds was evaluated by TGI (%). TGI (%) reflects the tumor growth inhibition rate. Calculation of TGI (%): TGI (%)=[(1−(average tumor volume at the end of administration in a treatment group−average tumor volume at the beginning of administration in the treatment group))/(average tumor volume at the end of treatment in the solvent control group−average tumor volume at the beginning of treatment in the solvent control group)]×100%.

[8] abbreviates: Homo sapiens, MIA PaCa-2, 120 h.

Turning to `C=CC(=O)N1CCN(c2nc(N3CC(N(CC)CC)C3)nc3c(=O)n(-c4c(N)cccc4F)c(C(F)(F)F)cc23)CC1` (single isomer, unassigned) [Example 32], the IC50 is 0.45 µM in data set [1], 29.3 µM in data set [2] and 0.37 µM in data set [3] (setting [8]). The half-life in data set [4], in data set [5] and in data set [6] was greater than 2.42 h throughout.

As to `C=CC(=O)N1CCN(c2nc(N3CC(N(CC)CC)C3)nc3c(=O)n(-c4c(O)cccc4F)c(C(F)(F)F)cc23)CC1` [Example 9], the figures for the half-life in data set [4], in data set [5] and in data set [6] were greater than 2.42 h, 0.772 h and greater than 2.42 h, respectively.

For the molecule `C=CC(=O)N1CCN(c2ncnc3c(=O)n(-c4c(O)cccc4F)c(C(F)(F)F)cc23)CC1` [Example 2], the IC50 was 5.36 µM in data set [1], greater than 50 µM in data set [2] and 6.48 µM in data set [3] (setting [8]). The half-life in data set [4], in data set [5] and in data set [6] was greater than 2.42 h in each case. For the same molecule, the “Tumor volume (day 20)” value in data set [7] (50 mg/kg orally daily) turned out to be 457 ± 94 mm^3; in data set [7] (200 mg/kg orally daily), 307 ± 61 mm^3. In addition, the TGI came to 35% in data set [7] (50 mg/kg orally daily) and 69% in data set [7] (200 mg/kg orally daily).

As to `C=CC(=O)N1CCN(c2nc(N3CC(N(CC)CC)C3)nc3c(=O)n(-c4c(C)ccc(N)c4C)c(C(F)(F)F)cc23)CC1` [Example 36], the IC50 in data set [3] is 1.11 µM. Further, the half-life in data set [4], in data set [5] and in data set [6] was greater than 2.42 h in each case.
